Laboratory results published in PMC4917279 (Journal of Medicinal Chemistry, 2016).

Experiments:
[1] = molecular target: T1, ABL1(F317I)-nonphosphorylated (Homo sapiens, UniProt P00519, F317I); assay: KINOMEscan; assay type: binding; conditions: read-out: %Ctrl @ 1000 nM
T1 construct: purchased DiscoveRx (KINOMEscan service)

[2] = molecular target: T2, ABL1(F317I)-phosphorylated (Homo sapiens, UniProt P00519, F317I); assay: KINOMEscan; assay type: binding; conditions: read-out: %Ctrl @ 1000 nM
T2 construct: purchased DiscoveRx (KINOMEscan service)

[3] = molecular target: T3, ABL1(Q252H)-nonphosphorylated (Homo sapiens, UniProt P00519, Q252H); assay: KINOMEscan; assay type: binding; conditions: read-out: %Ctrl @ 1000 nM
T3 construct: purchased DiscoveRx (KINOMEscan service)

ABL1-nonphosphorylated = molecular target: T4, ABL1-nonphosphorylated (Homo sapiens, UniProt P00519); assay: KINOMEscan; assay type: binding; conditions: read-out: %Ctrl @ 1000 nM
T4 construct: purchased DiscoveRx

ACVR2B = molecular target: T5, ACVR2B (Homo sapiens, UniProt Q13705); assay: KINOMEscan; assay type: binding; conditions: read-out: %Ctrl @ 1000 nM
T5 construct: purchased DiscoveRx

ANKK1 = molecular target: T6, ANKK1 (Homo sapiens, UniProt Q8NFD2); assay: KINOMEscan; assay type: binding; conditions: read-out: %Ctrl @ 1000 nM
T6 construct: purchased DiscoveRx KINOMEscan

AXL = molecular target: T7, AXL (Homo sapiens, UniProt P30530); assay: KINOMEscan; assay type: binding; conditions: read-out: %Ctrl @ 1000 nM
T7 construct: purchased DiscoveRx KINOMEscan
T7 sequence (P30530 26-894): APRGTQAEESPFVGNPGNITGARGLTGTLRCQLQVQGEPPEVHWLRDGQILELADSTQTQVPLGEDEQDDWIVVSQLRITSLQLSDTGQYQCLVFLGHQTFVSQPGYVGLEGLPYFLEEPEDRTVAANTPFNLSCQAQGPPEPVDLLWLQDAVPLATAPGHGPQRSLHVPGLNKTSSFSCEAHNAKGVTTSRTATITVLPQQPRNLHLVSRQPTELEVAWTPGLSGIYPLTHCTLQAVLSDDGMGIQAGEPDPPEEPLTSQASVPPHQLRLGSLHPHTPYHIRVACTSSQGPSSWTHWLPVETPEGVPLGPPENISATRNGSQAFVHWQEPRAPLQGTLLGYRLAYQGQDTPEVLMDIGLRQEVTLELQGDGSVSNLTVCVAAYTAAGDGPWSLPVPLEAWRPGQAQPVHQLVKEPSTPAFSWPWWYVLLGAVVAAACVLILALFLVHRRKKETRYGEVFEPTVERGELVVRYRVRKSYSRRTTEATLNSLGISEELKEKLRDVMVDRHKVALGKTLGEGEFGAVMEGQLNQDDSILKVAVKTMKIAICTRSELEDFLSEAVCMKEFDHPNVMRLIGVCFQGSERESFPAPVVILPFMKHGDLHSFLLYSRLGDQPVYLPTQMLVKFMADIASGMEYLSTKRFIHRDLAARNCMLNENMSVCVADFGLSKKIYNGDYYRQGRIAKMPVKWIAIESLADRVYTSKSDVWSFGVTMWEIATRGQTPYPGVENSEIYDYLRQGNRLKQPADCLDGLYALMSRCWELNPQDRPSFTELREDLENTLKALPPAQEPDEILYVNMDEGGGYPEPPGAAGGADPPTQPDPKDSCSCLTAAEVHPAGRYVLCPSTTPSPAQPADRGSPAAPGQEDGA

BRK = molecular target: T8, BRK (Homo sapiens, UniProt Q13882); assay: KINOMEscan; assay type: binding; conditions: read-out: %Ctrl @ 1000 nM
T8 construct: purchased DiscoveRx KINOMEscan

CASK = molecular target: T9, CASK (Homo sapiens, UniProt O14936); assay: KINOMEscan; assay type: binding; conditions: read-out: %Ctrl @ 1000 nM
T9 construct: purchased DiscoveRx KINOMEscan

CHEK1 = molecular target: T10, CHEK1 (Homo sapiens, UniProt O14757); assay: KINOMEscan; assay type: binding; conditions: read-out: %Ctrl @ 1000 nM
T10 construct: purchased DiscoveRx KINOMEscan

CLK2 = molecular target: T11, CLK2 (Homo sapiens, UniProt P49760); assay: KINOMEscan; assay type: binding; conditions: read-out: %Ctrl @ 1000 nM
T11 construct: purchased DiscoveRx KINOMEscan
T11 sequence (P49760 whole entry): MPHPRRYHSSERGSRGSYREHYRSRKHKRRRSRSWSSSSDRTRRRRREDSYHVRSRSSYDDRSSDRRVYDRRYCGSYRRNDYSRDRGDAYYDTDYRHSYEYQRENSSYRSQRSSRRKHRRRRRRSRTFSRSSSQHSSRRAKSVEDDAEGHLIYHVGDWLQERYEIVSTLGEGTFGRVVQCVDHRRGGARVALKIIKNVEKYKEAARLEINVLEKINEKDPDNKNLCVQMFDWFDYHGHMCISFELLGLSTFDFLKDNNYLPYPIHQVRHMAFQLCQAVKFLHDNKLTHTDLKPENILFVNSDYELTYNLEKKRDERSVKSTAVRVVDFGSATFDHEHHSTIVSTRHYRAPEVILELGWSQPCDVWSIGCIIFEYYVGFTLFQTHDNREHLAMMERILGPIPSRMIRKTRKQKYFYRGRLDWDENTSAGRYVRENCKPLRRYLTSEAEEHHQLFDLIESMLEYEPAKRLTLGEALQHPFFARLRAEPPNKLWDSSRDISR

DMPK2 = molecular target: T12, DMPK2 (Homo sapiens, UniProt Q6DT37); assay: KINOMEscan; assay type: binding; conditions: read-out: %Ctrl @ 1000 nM
T12 construct: purchased DiscoveRx KINOMEscan

DRAK1 = molecular target: T13, DRAK1 (Homo sapiens, UniProt Q9UEE5); assay: KINOMEscan; assay type: binding; conditions: read-out: %Ctrl @ 1000 nM
T13 construct: purchased DiscoveRx KINOMEscan

EPHB3 = molecular target: T14, EPHB3 (Homo sapiens, UniProt P54753); assay: KINOMEscan; assay type: binding; conditions: read-out: %Ctrl @ 1000 nM
T14 construct: purchased DiscoveRx KINOMEscan

ERBB4 = molecular target: T15, ERBB4 (Homo sapiens, UniProt Q15303); assay: KINOMEscan; assay type: binding; conditions: read-out: %Ctrl @ 1000 nM
T15 construct: purchased DiscoveRx KINOMEscan

ERK1 = molecular target: T16, ERK1 (Homo sapiens, UniProt P27361); assay: KINOMEscan; assay type: binding; conditions: read-out: %Ctrl @ 1000 nM
T16 construct: purchased DiscoveRx KINOMEscan

FLT3(N841I) = molecular target: T17, FLT3(N841I) (Homo sapiens, UniProt P36888, N841I); assay: KINOMEscan; assay type: binding; conditions: read-out: %Ctrl @ 1000 nM
T17 construct: purchased DiscoveRx KINOMEscan

GAK = molecular target: T18, GAK (Homo sapiens, UniProt O14976); assay: KINOMEscan; assay type: binding; conditions: read-out: %Ctrl @ 1000 nM
T18 construct: purchased DiscoveRx KINOMEscan

JNK3 = molecular target: T19, JNK3 (Homo sapiens, UniProt P53779); assay: KINOMEscan; assay type: binding; conditions: read-out: %Ctrl @ 1000 nM
T19 construct: purchased DiscoveRx KINOMEscan

LRRK2(G2019S) = molecular target: T20, LRRK2(G2019S) (Homo sapiens, UniProt Q5S007, G2019S); assay: KINOMEscan; assay type: binding; conditions: read-out: %Ctrl @ 1000 nM
T20 construct: purchased DiscoveRx KINOMEscan

MAPKAPK5 = molecular target: T21, MAPKAPK5 (Homo sapiens, UniProt Q8IW41); assay: KINOMEscan; assay type: binding; conditions: read-out: %Ctrl @ 1000 nM
T21 construct: purchased DiscoveRx KINOMEscan

MARK4 = molecular target: T22, MARK4 (Homo sapiens, UniProt Q96L34); assay: KINOMEscan; assay type: binding; conditions: read-out: %Ctrl @ 1000 nM
T22 construct: purchased DiscoveRx KINOMEscan
T22 sequence (Q96L34 whole entry): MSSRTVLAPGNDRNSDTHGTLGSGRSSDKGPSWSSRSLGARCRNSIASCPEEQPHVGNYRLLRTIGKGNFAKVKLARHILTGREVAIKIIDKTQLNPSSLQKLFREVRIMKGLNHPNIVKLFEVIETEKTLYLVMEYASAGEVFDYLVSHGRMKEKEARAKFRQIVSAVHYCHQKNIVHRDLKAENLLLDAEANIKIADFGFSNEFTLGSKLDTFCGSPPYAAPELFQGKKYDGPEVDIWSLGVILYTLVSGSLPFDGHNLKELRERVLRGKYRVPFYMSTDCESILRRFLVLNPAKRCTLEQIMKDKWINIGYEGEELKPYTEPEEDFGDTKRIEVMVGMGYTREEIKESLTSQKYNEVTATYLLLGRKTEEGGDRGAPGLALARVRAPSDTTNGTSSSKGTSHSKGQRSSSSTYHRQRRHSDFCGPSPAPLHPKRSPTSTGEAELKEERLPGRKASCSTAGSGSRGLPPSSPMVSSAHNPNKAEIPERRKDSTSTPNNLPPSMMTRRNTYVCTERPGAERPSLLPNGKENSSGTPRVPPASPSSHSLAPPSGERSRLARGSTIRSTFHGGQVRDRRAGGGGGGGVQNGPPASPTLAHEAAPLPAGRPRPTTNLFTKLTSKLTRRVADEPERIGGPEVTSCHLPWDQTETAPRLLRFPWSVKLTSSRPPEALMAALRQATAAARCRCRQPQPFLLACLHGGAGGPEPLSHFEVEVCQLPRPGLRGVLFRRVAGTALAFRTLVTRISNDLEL

MKK7 = molecular target: T23, MKK7 (Homo sapiens, UniProt O14733); assay: KINOMEscan; assay type: binding; conditions: read-out: %Ctrl @ 1000 nM
T23 construct: purchased DiscoveRx KINOMEscan

MYO3B = molecular target: T24, MYO3B (Homo sapiens, UniProt Q8WXR4); assay: KINOMEscan; assay type: binding; conditions: read-out: %Ctrl @ 1000 nM
T24 construct: purchased DiscoveRx KINOMEscan

NDR1 = molecular target: T25, NDR1 (Homo sapiens, UniProt Q15208); assay: KINOMEscan; assay type: binding; conditions: read-out: %Ctrl @ 1000 nM
T25 construct: purchased DiscoveRx KINOMEscan

NEK2 = molecular target: T26, NEK2 (Homo sapiens, UniProt P51955); assay: KINOMEscan; assay type: binding; conditions: read-out: %Ctrl @ 1000 nM
T26 construct: purchased DiscoveRx KINOMEscan

p38-beta = molecular target: T27, p38-beta (Homo sapiens, UniProt Q15759); assay: KINOMEscan; assay type: binding; conditions: read-out: %Ctrl @ 1000 nM
T27 construct: purchased DiscoveRx KINOMEscan
T27 sequence (Q15759 whole entry): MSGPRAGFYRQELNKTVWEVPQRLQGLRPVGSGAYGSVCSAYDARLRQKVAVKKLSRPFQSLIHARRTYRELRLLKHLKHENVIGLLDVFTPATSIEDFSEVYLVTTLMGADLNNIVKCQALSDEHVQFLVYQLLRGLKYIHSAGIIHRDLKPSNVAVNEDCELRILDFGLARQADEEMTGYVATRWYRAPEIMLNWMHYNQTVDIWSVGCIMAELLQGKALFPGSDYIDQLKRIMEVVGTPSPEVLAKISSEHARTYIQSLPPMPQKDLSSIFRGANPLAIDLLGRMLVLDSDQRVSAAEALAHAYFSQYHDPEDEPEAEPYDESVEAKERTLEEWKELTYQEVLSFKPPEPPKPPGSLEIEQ

PLK4 = molecular target: T28, PLK4 (Homo sapiens, UniProt O00444); assay: KINOMEscan; assay type: binding; conditions: read-out: %Ctrl @ 1000 nM
T28 construct: purchased DiscoveRx KINOMEscan

RAF1 = molecular target: T29, RAF1 (Homo sapiens, UniProt P04049); assay: KINOMEscan; assay type: binding; conditions: read-out: %Ctrl @ 1000 nM
T29 construct: purchased DiscoveRx KINOMEscan

RIPK4 = molecular target: T30, RIPK4 (Homo sapiens, UniProt P57078); assay: KINOMEscan; assay type: binding; conditions: read-out: %Ctrl @ 1000 nM
T30 construct: purchased DiscoveRx KINOMEscan

SRPK2 = molecular target: T31, SRPK2 (Homo sapiens, UniProt P78362); assay: KINOMEscan; assay type: binding; conditions: read-out: %Ctrl @ 1000 nM
T31 construct: purchased DiscoveRx KINOMEscan

TAOK1 = molecular target: T32, TAOK1 (Homo sapiens, UniProt Q7L7X3); assay: KINOMEscan; assay type: binding; conditions: read-out: %Ctrl @ 1000 nM
T32 construct: purchased DiscoveRx KINOMEscan
T32 sequence (Q7L7X3 whole entry): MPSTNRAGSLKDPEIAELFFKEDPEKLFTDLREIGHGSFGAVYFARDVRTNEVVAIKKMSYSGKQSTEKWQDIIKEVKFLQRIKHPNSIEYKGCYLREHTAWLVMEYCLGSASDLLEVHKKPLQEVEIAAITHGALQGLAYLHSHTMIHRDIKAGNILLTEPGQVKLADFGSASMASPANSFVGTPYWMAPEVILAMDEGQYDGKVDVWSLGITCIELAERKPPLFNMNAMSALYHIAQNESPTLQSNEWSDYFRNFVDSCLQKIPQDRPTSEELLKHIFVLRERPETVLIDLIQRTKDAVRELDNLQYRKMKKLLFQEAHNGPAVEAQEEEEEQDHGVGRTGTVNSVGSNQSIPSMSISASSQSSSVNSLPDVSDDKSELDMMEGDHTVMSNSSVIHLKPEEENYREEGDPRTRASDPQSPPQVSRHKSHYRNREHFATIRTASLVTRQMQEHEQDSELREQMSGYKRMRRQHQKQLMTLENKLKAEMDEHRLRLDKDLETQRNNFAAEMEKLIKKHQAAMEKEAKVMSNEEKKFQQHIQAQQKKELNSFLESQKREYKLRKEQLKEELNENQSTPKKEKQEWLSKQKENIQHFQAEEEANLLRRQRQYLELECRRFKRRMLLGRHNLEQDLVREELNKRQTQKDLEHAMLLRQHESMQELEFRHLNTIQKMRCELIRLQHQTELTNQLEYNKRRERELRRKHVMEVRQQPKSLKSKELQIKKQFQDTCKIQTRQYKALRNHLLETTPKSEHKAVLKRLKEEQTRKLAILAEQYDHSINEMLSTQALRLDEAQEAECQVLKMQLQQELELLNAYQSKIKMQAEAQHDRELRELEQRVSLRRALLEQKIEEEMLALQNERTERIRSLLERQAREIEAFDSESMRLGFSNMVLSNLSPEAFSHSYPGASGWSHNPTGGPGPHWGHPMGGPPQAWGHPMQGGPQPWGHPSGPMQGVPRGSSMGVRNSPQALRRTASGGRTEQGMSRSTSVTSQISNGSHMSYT

TIE2 = molecular target: T33, TIE2 (Homo sapiens, UniProt Q02763); assay: KINOMEscan; assay type: binding; conditions: read-out: %Ctrl @ 1000 nM
T33 construct: purchased DiscoveRx KINOMEscan

ULK2 = molecular target: T34, ULK2 (Homo sapiens, UniProt Q8IYT8); assay: KINOMEscan; assay type: binding; conditions: read-out: %Ctrl @ 1000 nM
T34 construct: purchased DiscoveRx KINOMEscan
T34 sequence (Q8IYT8 whole entry): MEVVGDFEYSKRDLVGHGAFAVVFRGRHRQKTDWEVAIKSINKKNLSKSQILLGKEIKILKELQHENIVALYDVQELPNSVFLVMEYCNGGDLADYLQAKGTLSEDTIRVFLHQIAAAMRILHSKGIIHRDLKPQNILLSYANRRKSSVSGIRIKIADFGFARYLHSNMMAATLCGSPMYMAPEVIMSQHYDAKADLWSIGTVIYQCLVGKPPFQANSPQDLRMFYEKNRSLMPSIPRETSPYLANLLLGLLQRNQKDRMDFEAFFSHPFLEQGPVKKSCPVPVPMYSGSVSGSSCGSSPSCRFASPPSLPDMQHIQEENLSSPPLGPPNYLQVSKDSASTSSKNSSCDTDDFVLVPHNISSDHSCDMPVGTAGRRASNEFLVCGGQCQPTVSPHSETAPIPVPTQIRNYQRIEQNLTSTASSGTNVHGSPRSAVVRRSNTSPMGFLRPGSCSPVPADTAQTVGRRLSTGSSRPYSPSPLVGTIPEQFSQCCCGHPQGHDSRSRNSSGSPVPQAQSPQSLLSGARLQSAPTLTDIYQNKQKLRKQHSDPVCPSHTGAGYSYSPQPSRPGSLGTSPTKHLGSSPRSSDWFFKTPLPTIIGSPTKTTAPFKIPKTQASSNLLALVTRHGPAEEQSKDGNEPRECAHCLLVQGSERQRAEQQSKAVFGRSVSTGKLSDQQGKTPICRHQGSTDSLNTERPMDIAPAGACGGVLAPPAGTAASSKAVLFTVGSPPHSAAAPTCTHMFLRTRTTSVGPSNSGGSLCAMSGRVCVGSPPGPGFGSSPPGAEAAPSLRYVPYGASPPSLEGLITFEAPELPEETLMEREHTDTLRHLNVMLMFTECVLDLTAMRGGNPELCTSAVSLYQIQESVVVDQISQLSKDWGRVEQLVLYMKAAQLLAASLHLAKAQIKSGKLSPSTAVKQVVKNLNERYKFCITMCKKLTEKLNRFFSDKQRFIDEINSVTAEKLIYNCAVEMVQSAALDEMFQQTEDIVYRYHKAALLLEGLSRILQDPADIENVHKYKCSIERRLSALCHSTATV

SMYD2 = SMYD2 (Homo sapiens, UniProt Q9NRG4); assay: Western blot of SY46 methylation signal in SMYD2 overexpressing KYSE150 cells, time course; assay type: cell-based; design: expressed in transfected cells; conditions: 10 µM
Sequence of SMYD2 (Q9NRG4 whole entry): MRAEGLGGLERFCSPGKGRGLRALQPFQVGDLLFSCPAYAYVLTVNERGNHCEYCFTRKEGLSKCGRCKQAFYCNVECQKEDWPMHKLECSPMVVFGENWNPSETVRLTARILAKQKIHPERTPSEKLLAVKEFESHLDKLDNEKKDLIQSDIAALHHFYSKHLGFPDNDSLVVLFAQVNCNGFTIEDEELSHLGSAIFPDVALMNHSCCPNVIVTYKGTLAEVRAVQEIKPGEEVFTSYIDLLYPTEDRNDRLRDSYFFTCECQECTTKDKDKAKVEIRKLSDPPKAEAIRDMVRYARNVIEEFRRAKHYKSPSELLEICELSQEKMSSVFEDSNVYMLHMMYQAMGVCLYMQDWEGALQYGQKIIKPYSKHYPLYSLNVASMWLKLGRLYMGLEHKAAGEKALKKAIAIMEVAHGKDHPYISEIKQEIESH
Text: 3. Figure S2 Validation of AHNAK as SMYD2 substrate
Figure S2 (A) Overexpression of SMYD2 in KYSE.150 cells. SMYD2 is primarily detected in the cytosol. One SMYD2 overexpressing and one non.overexpressing cell are highlighted by arrows. The methylation signal detected by SY46 is overlapping with the SMYD2 overexpressing cells (B) Western blot analysis of SMYD2 overexpressing or parental KYSE150 cells. SY46 methylation antibody detects a strong increase in methylation signal in the high molecular weight region in SMYD2 overexpressing cells. (Later we discovered AHNAK as the high molecular substrate of around 630 kDa. Due to the high molecular weight of AHNAK and partial degradation different fragments are detected.) (C) Western blot analysis of SMYD2 overexpressing KYSE150 cells treated with DMSO or 10 µM of either AZ505 or (S).4 and harvested after the indicated time points. The methylation signal detected by SY46 was reduced in a time dependent manner. (D) Only expression of SMYD2 leads to specific methylation signals detected by SY46. Western blot analysis of a transient overexpression of wildtype (SMYD2WT /SMYD3WT) or enzymatically point mutants (SMYD2H207A/SMYD3N205A) of either SMYD2 or SMYD3 in MDA.MB231 or HeLa cells. Only in SMYD2WT cells a methylation signal is detected. Expression of green fluorescence protein (GFP) was used as control (E) […]

CCN(C(=O)CO)[C@H]1CN(/C(=N\C#N)Nc2cccc(OC(F)F)c2)N=C1c1ccc(Cl)c(Cl)c1 [(S)-4]
remaining binding at 1 µM [1]: 100%
remaining binding at 1 µM [2]: 98%
remaining binding at 1 µM [3]: 66%
remaining binding at 1 µM (ABL1-nonphosphorylated): 79%
remaining binding at 1 µM (ACVR2B): 100%
remaining binding at 1 µM (ANKK1): 92%
remaining binding at 1 µM (AXL): 91%
remaining binding at 1 µM (BRK): 73%
remaining binding at 1 µM (CASK): 61%
remaining binding at 1 µM (CHEK1): 98%
remaining binding at 1 µM (CLK2): 97%
remaining binding at 1 µM (DMPK2): 66%
remaining binding at 1 µM (DRAK1): 100%
remaining binding at 1 µM (EPHB3): 99%
remaining binding at 1 µM (ERBB4): 93%
remaining binding at 1 µM (ERK1): 100%
remaining binding at 1 µM (FLT3(N841I)): 95%
remaining binding at 1 µM (GAK): 100%
remaining binding at 1 µM (JNK3): 100%
remaining binding at 1 µM (LRRK2(G2019S)): 98%
remaining binding at 1 µM (MAPKAPK5): 100%
remaining binding at 1 µM (MARK4): 75%
remaining binding at 1 µM (MKK7): 99%
remaining binding at 1 µM (MYO3B): 96%
remaining binding at 1 µM (NDR1): 82%
remaining binding at 1 µM (NEK2): 99%
remaining binding at 1 µM (p38-beta): 100%
remaining binding at 1 µM (PLK4): 56%
remaining binding at 1 µM (RAF1): 100%
remaining binding at 1 µM (RIPK4): 100%
remaining binding at 1 µM (SRPK2): 95%
remaining binding at 1 µM (TAOK1): 89%
remaining binding at 1 µM (TIE2): 100%
remaining binding at 1 µM (ULK2): 100%
Methylation signal detected by SY46 (SMYD2): reduced
